Reference: ChEMBL document CHEMBL4627277, “Catenulisporidins A and B, 16-membered macrolides of the hygrolidin family produced by the chemically underexplored actinobacterium Catenulispora species” (Bioorg Med Chem Lett, 2020)
pIC50: −log10 of the molar value. Activity calls are given as the source filed them. The calls are words filed in the database; no cut-off is given here.

Experiments:
Assay type in all cases: functional, cell-based
HeLa [1] = test: Modulation of autophagy in human HeLa cells assessed as accumulation of p62 measured after 24 hrs by western blot analysis
HeLa [2] = test: Modulation of autophagy in human HeLa cells expressing mRFP-EGFP-LC3B assessed as induction of EGFP-LC3B puncta formation at 3 uM measured after 24 hrs by fluorescence microscopic analysis
HeLa [3] = test: Modulation of autophagy in human HeLa cells assessed as autophagosome maturation by measuring conversion of LC3B-I to LC3B-II measured after 24 hrs by western blot analysis
HeLa [4] = test: Antiproliferative activity against human HeLa cells assessed as reduction in cell growth
HeLa [5] = test: Inhibition of autophagic flux in human HeLa cells expressing mRFP-EGFP-LC3B assessed as blockage of autophagosome-lysosome fusion by measuring accumulation of yellow puncta at 3 uM measured after 24 hrs by fluorescence microscopic analysis
HeLa [6] = test: Induction of autophagy in human HeLa cells expressing mRFP-EGFP-LC3B assessed as accumulation of red and green fluorescence signals at 200 nM measured after 24 hrs by fluorescence microscopic analysis
HeLa [7] = test: Modulation of autophagy in human HeLa cells expressing mRFP-EGFP-LC3B assessed as induction of EGFP-LC3B puncta formation at 0.3 uM measured after 24 hrs by fluorescence microscopic analysis

CC[C@H]1O[C@@](O)([C@@H](C)[C@H](O)[C@H](C)[C@H]2OC(=O)/C(C)=C/C(C)=C/[C@@H](C)[C@@H](O)[C@@H](C)C[C@@](C)(O)[C@@H](O)/C=C/[C@@H]2OC)C[C@@H](OC(=O)/C=C/C(=O)O)[C@@H]1C
Activity (HeLa [1]): Dose-dependent effect | Activity (HeLa [2]): Active | Activity (HeLa [3]): Dose-dependent effect | pIC50 (HeLa [4]): < 4.52 | inhibition (HeLa [5]): Active

CCC(=O)N1CCN(c2ccc(-n3c(=O)ccc4cnc5ccc(-c6cnc7ccccc7c6)cc5c43)cc2C(F)(F)F)CC1
Activity (HeLa [6]): Active

CC[C@H]1O[C@@](O)([C@@H](C)[C@H](O)[C@H](C)[C@H]2OC(=O)/C(C)=C/C(C)=C/[C@@H](C)[C@@H](O)[C@@H](C)C/C(C)=C/C=C/[C@@H]2OC)C[C@@H](OC(=O)/C=C/C(=O)O)[C@@H]1C
Activity (HeLa [1]): Dose-dependent effect | Activity (HeLa [2]): Active | Activity (HeLa [3]): Dose-dependent effect | pIC50 (HeLa [4]): 4.93 | Activity (HeLa [7]): Active | inhibition (HeLa [5]): Active

CC[C@H]1O[C@@](O)([C@@H](C)[C@H](O)[C@H](C)[C@H]2OC(=O)/C(C)=C/C(C)=C/[C@@H](C)[C@H]3O[C@](C)(C[C@@H]3C)[C@@H](O)/C=C/[C@@H]2OC)C[C@@H](OC(=O)/C=C/C(=O)O)[C@@H]1C
Activity (HeLa [1]): Dose-dependent effect | Activity (HeLa [2]): Active | Activity (HeLa [3]): Dose-dependent effect | pIC50 (HeLa [4]): < 4.52 | inhibition (HeLa [5]): Active

CO/C1=C\C(C)=C\[C@@H](C)[C@@H](O)[C@@H](C)C/C(C)=C/C=C/[C@H](OC)[C@@H]([C@@H](C)[C@@H](O)[C@H](C)[C@@]2(O)C[C@@H](O)[C@H](C)[C@@H](C(C)C)O2)OC1=O [BAFILOMYCIN A1]
Activity (HeLa [1]): Dose-dependent effect | Activity (HeLa [2]): Active | pIC50 (HeLa [4]): 4.89 | Activity (HeLa [7]): Active | inhibition (HeLa [5]): Active
